Calls of active or inactive are those of the source. The rule behind the calls is not given here.
Columns and labels:
SK-MEL-28 = experiment: Anticancer activity against human SK-MEL-28 cells assessed as cell growth at 10 umol/L incubated for 48 hrs by SRB assay relative to control; assay type: functional; conditions: SK-MEL-28, 48 h, dose 10 µmol/L, read-out: Activity
OVCAR-3 = experiment: Anticancer activity against human OVCAR-3 cells assessed as cell growth at 10 umol/L incubated for 48 hrs by SRB assay relative to control; assay type: functional; conditions: OVCAR-3, 48 h, dose 10 µmol/L, read-out: Activity
[1] = test system: Panel NCI-60 (60 carcinoma cell lines); experiment: Antiproliferative activity against human panel NCI-60 (60 carcinoma cell lines) incubated for 48 hrs by SRB assay; assay type: functional
[2] = test system: Panel NCI-60 (60 carcinoma cell lines); experiment: Antiproliferative activity against human panel NCI-60 (60 carcinoma cell lines) assessed as total inhibition of cell growth incubated for 48 hrs by SRB assay; assay type: functional
Tubulin (Homo sapiens) [3] = biological target: T1, Tubulin (Homo sapiens) (UniProt P68371+Q9H4B7+P0DPH7+P68366+Q13509+Q71U36+P04350+Q3ZCM7+P07437+P68363+Q9BQE3+Q6PEY2+Q13885+Q9BVA1+Q9BUF5); experiment: Inhibition of tubulin polymerization in human HT-29 cells upto 100 uM incubated for 48 hrs by Western blot analysis; assay type: cell-based
K562 [4] = experiment: Inhibition of cell growth in human K562 cells incubated for 72 hrs by MTT assay; assay type: functional, cell-based
T47D = experiment: Anticancer activity against human T47D cells assessed as cell growth at 10 umol/L incubated for 48 hrs by SRB assay relative to control; assay type: functional; conditions: dose 10 µmol/L, read-out: Activity
OVCAR-8 = experiment: Anticancer activity against human OVCAR-8 cells assessed as cell growth at 10 umol/L incubated for 48 hrs by SRB assay relative to control; assay type: functional; conditions: OVCAR-8, 48 h, dose 10 µmol/L, read-out: Activity
K562 [5] = experiment: Antiproliferative activity against human K562 cells assessed as mean cell growth at 10 uM incubated for 48 hrs by SRB assay relative to control; assay type: functional
HT-29 [6] = experiment: Inhibition of cell growth in human HT-29 cells incubated for 72 hrs by MTT assay; assay type: functional, cell-based; conditions: HT-29, 72 h
HT-29 [7] = experiment: Downregulation of beta-actin level in human HT-29 cells upto 100 uM incubated for 48 hrs by Western blot analysis; assay type: functional, cell-based
COLO357 = experiment: Inhibition of cell growth in human COLO357 cells incubated for 72 hrs by MTT assay; assay type: functional, cell-based
Tubulin (Homo sapiens) [8] = biological target: T1, Tubulin (Homo sapiens); experiment: Inhibition of tubulin polymerization in human K562 cells at 0.5 uM incubated for 24 hrs by confocal microscopy; assay type: cell-based
Panc02 = experiment: Inhibition of cell growth in mouse Panc02 cells incubated for 72 hrs by MTT assay; assay type: functional
[9] = Inhibition of cell growth in human HaCaT cells incubated for 72 hrs by MTT assay; assay type: toxicity, cell-based
NCI-H226 = experiment: Antiproliferative activity against human NCI-H226 cells assessed as mean cell growth at 10 uM incubated for 48 hrs by SRB assay relative to control; assay type: functional

| Structure (SMILES) | growth at 10 µM (SK-MEL-28) [%] | growth at 10 µM (OVCAR-3) [%] | GI50 [1] [nM] | LC50 [1] [nM] | GI [2] [µM] | inhibition (Tubulin (Homo sapiens) [3]) | IC50 (K562 [4]; K562, 72 h) [nM] | GI50 (K562 [4]; K562, time 72 hrs) [nM] | growth at 10 µM (T47D) [%] | growth at 10 µM (OVCAR-8) [%] | Activity (K562 [5]) [%] | IC50 (HT-29 [6]) [nM] | Activity (HT-29 [7]) | IC50 (COLO357; COLO357, 72 h) [nM] | GI50 (COLO357; COLO357, time 72 hrs) [nM] | inhibition (Tubulin (Homo sapiens) [8]) | GI50 (Panc02) [nM] | IC50 at 72 h [9] [nM] | Activity (NCI-H226) [%] |
| --- | --- | --- | --- | --- | --- | --- | --- | --- | --- | --- | --- | --- | --- | --- | --- | --- | --- | --- | --- |
| CCN1C(=O)N(CC)C2C1NN=c1s/c(=C\c3ccc(Cl)cc3Cl)c(=O)n12 (centres undefined) | 45.7 | 13.4 | 80 | > 96400 | >66.8 | Active | 2 | 0.64 | 58.8 | 10.8 | 18 | 5.5 | Active | 6 | 16 | Active | 16 | 3.5 |  |
| COc1cc2c(c(OC)c1OC)-c1ccc(OC)c(=O)cc1[C@@H](NC(C)=O)CC2 [COLCHICINE] |  |  |  |  |  |  |  |  |  |  |  |  |  |  |  |  |  |  | 8 |
